Experimental findings from PubChem BioAssay (NCI) are described below.

“And” between values parts separate entries of the source, which are not always exact repeats. Equal values may be shown once.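 Assay format: 96-well plates, 48-hour exposure. Abbreviation: GI50, concentration required for 50% inhibition of growth. The concentration for full growth arrest is given as TGI.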

Some test systems named below: DMS 114 small cell lung; NCI-H226 lung; SNB-78 CNS; DMS 273 small cell lung; DLD-1 colon; XF 498 CNS; KM20L2 colon; HOP-18 NSCLC; M19-MEL melanoma; HCT-15 colon; BT-549 breast; MDA-MB-435; LXFL 529 NSCLC.
Common to all, as to assay: NCI tumour cell line growth inhibition, 48 h

`Cc1ccc(C(C)(C)C[P+](C)(c2ccccc2)c2ccccc2)cc1`: the TGI is 35.6 µM in the test on DMS 114 small cell lung; over 85.3 µM in the test with NCI-H226 lung; 88.1 µM with SNB-78 CNS; 23.8 µM with DMS 273 small cell lung; over 100 µM in the test on DLD-1 colon; 12.9 µM in the test with XF 498 CNS. The TGI in the test with KM20L2 colon was over 88.8 µM; in the test on HOP-18 NSCLC it was over 47.8 µM; with M19-MEL melanoma, over 89 µM; in the test on HCT-15 colon it was over 100 µM.
As for `COc1cc2c(cc1OCCCC(=O)Nc1cc(C(=O)Nc3cc(C(=O)Nc4cc(C(=O)NCCCN(C)C)n(C)n4)n(C)n3)n(C)n1)N=CC1CCCN1C2=O` (stereo unspecified), the TGI is 48.1 µM with NCI-H226 lung, 37.5 µM in the test with BT-549 breast, 44.9 µM with MDA-MB-435 and over 100 µM in the test with HCT-15 colon.
Taken in the same sequence, the figures for `Cc1ccc(C(=O)N/N=C(\N=Nc2cccc(Cl)c2)c2ccc(N(CCC#N)CCC#N)cc2C)cc1` were over 100 µM, over 100 µM, over 100 µM and over 100 µM.
Consider `CCNc1ccc2c(c1)Cc1ccccc1-2`, for which the TGI in the test with NCI-H226 lung was over 100 µM; in the test with BT-549 breast it was 75.5 µM; with MDA-MB-435 it was over 100 µM; with HCT-15 colon it was over 100 µM.
Consider `N#Cc1nc(CCCCCN2C(=O)c3ccccc3C2=O)oc1N`, for which the TGI in the test on NCI-H226 lung, with BT-549 breast, in the test with MDA-MB-435 and with HCT-15 colon was over 100 µM each time.
Turning to `CCOC(=O)c1c(N2CCCC2)ncn(-c2ccccc2)c1=S`, the TGI with NCI-H226 lung, in the test with BT-549 breast, in the test on MDA-MB-435 and with HCT-15 colon was over 100 µM in each case.
As to `O=[N+]([O-])c1ccc2nc(-c3ccccn3)c(-c3ccccn3)nc2c1`, the TGI with NCI-H226 lung, in the test with BT-549 breast, in the test on MDA-MB-435 and in the test with HCT-15 colon was over 100 µM in each case.
With `NC(=S)N/N=C\c1ccc(OCc2cccc(COc3ccc(/C=N/NC(N)=S)cc3)n2)cc1`, the TGI with NCI-H226 lung is over 100 µM; in the test with BT-549 breast, 12.2 µM; with MDA-MB-435 it was over 100 µM; with HCT-15 colon, over 100 µM.
On to `O=C1NC(=O)/C(=C/c2ccc(S(=O)(=O)N/N=C/c3ccc(Cl)cc3)cc2)N1`, for which the TGI with NCI-H226 lung, in the test on BT-549 breast, with MDA-MB-435 and in the test with HCT-15 colon was over 100 µM each time.
For the molecule `[Cl][Pt+2][Cl].[NH-]C1CCCCC1[NH-]` (stereo unspecified), the GI50 is 29 µM and 30 µM and 11.5 µM with SNB-78 CNS; 8.07 µM and 2.19 µM and 1.36 µM in the test on KM20L2 colon; 25.6 µM and > 100 µM and 28.4 µM in the test on HOP-18 NSCLC; 5.58 µM and 4.7 µM and 0.677 µM with HCT-15 colon. The TGI in the test on SNB-78 CNS is over 100 µM; in the test with DLD-1 colon it was over 100 µM; in the test on KM20L2 colon, 44.6 µM and > 52.9 µM and 29.6 µM; in the test on HOP-18 NSCLC, over 100 µM; in the test on M19-MEL melanoma it was 23.9 µM and 25.7 µM and 10.6 µM; in the test on HCT-15 colon, 35.3 µM and > 100 µM and 37.9 µM.
`COC(=O)C1CCC(=O)N1C(=O)Cc1ccc(OC)cc1` (stereo unspecified): the TGI with DMS 114 small cell lung, in the test on NCI-H226 lung, with SNB-78 CNS, in the test on DMS 273 small cell lung, in the test on XF 498 CNS and in the test on LXFL 529 NSCLC was over 100 µM throughout. Further, the TGI with KM20L2 colon, with M19-MEL melanoma and in the test on HCT-15 colon was over 100 µM throughout.
Consider `COC(=O)[C@H]1[C@@H](C(C)C)O[C@@H](C(C)C)O[C@H]1C(F)(F)F`, for which the TGI in the test with NCI-H226 lung, in the test on BT-549 breast, with MDA-MB-435 and with HCT-15 colon was over 100 µM in each case.
Regarding `Cc1ccccc1-n1c(C)nc2c1C(=O)c1ccccc1C2=O`, the TGI in the test with DMS 114 small cell lung was 87 µM; with NCI-H226 lung, over 100 µM; in the test on SNB-78 CNS, over 100 µM; with DMS 273 small cell lung, over 100 µM; in the test on M19-MEL melanoma, 48.5 µM; in the test on HCT-15 colon it was over 100 µM.
Take `Cc1ccc(C(=O)O)c(CC2Cc3c(C)cccc3C2=O)c1` (stereo unspecified): the TGI in the test with NCI-H226 lung, in the test on BT-549 breast, in the test with MDA-MB-435 and with HCT-15 colon was over 100 µM in each case.
Turning to `C(=C\c1cccc(/C=C/c2ccccn2)n1)/c1ccccn1`, the TGI with NCI-H226 lung was over 100 µM; in the test on BT-549 breast it was 40.9 µM; with MDA-MB-435, over 100 µM; with HCT-15 colon, over 100 µM.
In the case of `Cc1ccc(S(=O)(=O)NNC(=O)c2cc(C)ccc2NC(=O)C23CC4CC(CC(C4)C2)C3)cc1`, the TGI with NCI-H226 lung is over 100 µM; with BT-549 breast it was over 100 µM; with MDA-MB-435 it was over 100 µM; in the test with HCT-15 colon it was 66.8 µM.
Take `Nc1cccc2c1C(=O)c1cccc(N)c1C2=O`: the TGI is over 100 µM in the test on NCI-H226 lung; over 100 µM with SNB-78 CNS; over 100 µM with DMS 273 small cell lung; over 100 µM with DLD-1 colon; 69.4 µM with XF 498 CNS; over 100 µM in the test on LXFL 529 NSCLC. Further, the TGI in the test with KM20L2 colon, in the test on M19-MEL melanoma and in the test on HCT-15 colon was over 100 µM each time.
Take `CN(C)CCNC(=O)c1ccc(NCCCN(C)CCCNc2ccc3c(=O)n(CCN(C)C)c(=O)n4c5ccccc5c(=O)c2c34)c2c(=O)c3ccccc3[nH]c12`: the TGI with NCI-H226 lung came out at 0.665 µM; with BT-549 breast it was 1.25 µM; in the test on MDA-MB-435, 0.18 µM; in the test with HCT-15 colon it was 1.31 µM.
The like results for `N#CC(C#N)=C1C(C#N)=C(N)NC12OCCO2` were, in that order, over 100 µM, over 100 µM, over 100 µM and over 100 µM.
`O=C1C=CC(=O)C(CNc2ccc(C(=O)OC34CC5CC(CC(C5)C3)C4)cc2)=C1`: the TGI in the test with NCI-H226 lung is 4.47 µM; in the test with BT-549 breast it was 15.7 µM; in the test with MDA-MB-435, 23 µM; in the test on HCT-15 colon, 12.3 µM.
Turning to `CC(=O)/C(=C/n1c(=S)[nH]c2ccccc21)C(=O)Nc1ccccc1C`, the TGI in the test with NCI-H226 lung, with BT-549 breast, in the test with MDA-MB-435 and with HCT-15 colon was over 100 µM in each case.
As to `C[C@@H](O)C(=O)N1[C@@H]2CC3CC[C@]2(CS1(=O)=O)C3(C)C`, the TGI is 65.3 µM with NCI-H226 lung, over 100 µM in the test with BT-549 breast, over 100 µM with MDA-MB-435 and over 100 µM in the test on HCT-15 colon.
As to `Cc1ccc(C2=NOC(=O)[C@@H]3CCCC[C@@H]23)cc1`, the TGI in the test with NCI-H226 lung, with BT-549 breast, in the test on MDA-MB-435 and with HCT-15 colon was over 100 µM throughout.
